The subject of one assay is Staphylococcus aureus. Briefly: MIC, broth two-fold serial dilution test, Saur. It is filed as cell-based. Particulars: read-out: Minimum Inhibitory Concentration (MIC). How it is done: (§1) A minimum inhibitory concentration (MIC) value is obtained using a broth, two-fold serial dilution test performed as follows: […] A volume of the stock solution is dispensed into culture media to give an initial starting test concentration of 500 ppm compound. The test is carried out by adding and equal volume of broth to each vessel in the dilution series, except for the first vessel. The first vessel contains twice the volume of broth plus the initial concentration of test compound. One half of the broth from the first vessel is transferred to the second vessel. After being mixed, one half the resulting volume is removed from the second vessel and transferred to the third vessel. The entire cycle is repeated sufficiently to give a series of concentrations amounting to 500, 250, 125, 63, 31, 16, 8, and 4 ppm (or 100, 50, 25, 12.5, 6.2, 3.1, 1.6, and 0.8), respectively. Each vessel is then inoculated with a cell suspension of the appropriate test organism. Bacteria are grown in both and fungi on agar slats for a time and at a temperature appropriate to the species being tested. At the end of the growth period, the broth is vortexed to disperse the cells. In the case of fungi, the pores are harvested by pipetting water onto the slant and dislodging the spores with a sterile loop. The cell/spore suspension is standardized by controlling incubation time, temperature, and the volume of the diluent. The suspension is then used to inoculate the vessels containing the broth compound. The vessels are then incubated at the appropriate temperature. After the incubation, the vessels are examined for growth/no growth. The minimum inhibitory concentration (MIC) is defined as the lowest concentration of compound that results in complete inhibition of growth of the test organism.

The test system of assay [1] is Pseudoperonospora cubensis. Nature of the assay: whole plant or invertebrate. The format is in vivo. To be noted: in Cucumis sativus, 168 h.
In the next assay the test system is Escherichia coli. Briefly: MIC, broth two-fold serial dilution test, Ecol. It is filed as cell-based. Particulars: read-out: Minimum Inhibitory Concentration (MIC). The method, then: as §1
Another assay deals with Phytophthora capsici. Briefly: In-vitro plant fungicide test, PHY. The format is cell-based. Particulars: read-out: % Control; for inhibition of growth at 25 ppm: rate 25 PPM; for inhibition of growth at 50 ppm: rate 50 PPM.
For the next assay, the system named is Fusarium roseum. Nature of the assay: microbe, parasite or virus in culture. To be noted: Fusarium sambucinum, read-out: % Control.
For a further assay, the system named is Botrytis cinerea. Briefly: In-vitro plant fungicide test, BOC. Particulars: read-out: % Control.
Another assay deals with Pseudomonas fluorescens. Nature of the assay: MIC, broth two-fold serial dilution test, Psfl. To be noted: read-out: Minimum Inhibitory Concentration (MIC). The format is cell-based. The method, then: as §1
Assay [2] has as its system Puccinia recondita (f. sp. tritici Races PKB and PLD). Nature of the assay: whole plant or invertebrate. The format is in vivo. To be noted: 240 h.
The subject of assay [3] is Piricularia oryzae. Nature of the assay: microbe, parasite or virus in culture. To be noted: read-out: % Control. The format is cell-based.
Assay [4] relates to Erysiphe graminis (f. sp. tritici). Briefly: whole plant or invertebrate. It is filed as in vivo. Particulars: Blumeria graminis.
The subject of a further assay is Phytophthora infestans. Nature of the assay: whole plant or invertebrate. The format is in vivo. Particulars: in Solanum lycopersicum, 96 h, read-out: % Control.
The next assay concerns Pseudomonas aerugenosa. Briefly: MIC, broth two-fold serial dilution test, Psae. The format is cell-based. Particulars: read-out: Minimum Inhibitory Concentration (MIC). How it is done: as §1
The subject of the next assay is Pythium ultimum. Nature of the assay: In-vitro plant fungicide test, PYU. It is filed as cell-based. To be noted: Globisporangium ultimum, read-out: % Control; for inhibition of growth at 25 ppm: rate 25 PPM; for inhibition of growth at 50 ppm: rate 50 PPM.
For another assay, the system named is Rhizoctonia solani. Nature of the assay: In-vitro plant fungicide test, RHI. It is filed as cell-based. To be noted: read-out: % Control; for inhibition of growth at 25 ppm: rate 25 PPM; for inhibition of growth at 50 ppm: rate 50 PPM.
A further assay has as its system Aspergillus niger. Nature of the assay: MIC, broth two-fold serial dilution test, Anig. The format is cell-based. To be noted: read-out: Minimum Inhibitory Concentration (MIC). The method, then:
as §1

A further assay relates to Aureobasidium pullulans. Nature of the assay: MIC, broth two-fold serial dilution test, Apul. It is filed as cell-based. To be noted: read-out: Minimum Inhibitory Concentration (MIC). How it is done:
as §1

In another assay the test system is Xanthomonas campestris. Briefly: In-vitro plant fungicide test, XAN. It is filed as cell-based. Particulars: XAN, read-out: % Control; for inhibition of growth at 25 ppm: rate 25 PPM; for inhibition of growth at 50 ppm: rate 50 PPM.
For another assay, the system named is Septoria nodorum. Briefly: In-vitro plant fungicide test, SEP. Particulars: Parastagonospora nodorum, read-out: % Control; for inhibition of growth at 50 ppm: rate 50 PPM. The format is cell-based.
The next assay deals with Cochliobolus sativus. Nature of the assay: In-vitro plant fungicide test, HEL. The format is cell-based. To be noted: Bipolaris sorokiniana, read-out: % Control; for inhibition of growth at 25 ppm: rate 25 PPM; for inhibition of growth at 50 ppm: rate 50 PPM.
The test system of assay [5] is Piricularia oryzae. Briefly: whole plant or invertebrate. It is filed as in vivo. Particulars: Pyricularia oryzae, 192 h, read-out: % Control.
Assay [6] deals with Septoria glume blotch of wheat. Briefly: whole plant or invertebrate. Particulars: Triticum aestivum. The format is in vivo.

Values after ≈ are worked out from the molar mass of the structure shown. Some results are limits rather than exact numbers.

For the compound `COC(=O)N(CC#CI)N=Cc1ccccc1` [Compound 3, N'-Methoxycarbonyl-N'-3-iodopropargyl benzaldehyde hyrazone], the MIC in the assay on Staphylococcus aureus was 125 µg/mL (≈ 365 µM); in the assay with Escherichia coli, more than 500 µg/mL; with Pseudomonas fluorescens, more than 500 µg/mL; in the assay on Pseudomonas aerugenosa, 250 µg/mL (≈ 731 µM); in the assay with Aspergillus niger, less than 4 µg/mL; with Aureobasidium pullulans, less than 4 µg/mL. In addition, the pest or weed control at 200 ppm in assay [1] came to 99%; in assay [2] it was 50%; in [4] it was 50%; in the assay with Phytophthora infestans it was 80%; in the assay on Piricularia oryzae [5], 90%. Besides, the inhibition of growth at 25 ppm stood at 75% in the assay with Phytophthora capsici; 75% with Fusarium roseum; 0% in the assay with Botrytis cinerea; 0% in the assay on Piricularia oryzae [3]; 75% with Pythium ultimum; 100% in the assay with Rhizoctonia solani. Also, the inhibition of growth at 25 ppm with Xanthomonas campestris and with Cochliobolus sativus was 0% throughout. Moreover, the inhibition of growth at 50 ppm was determined as 100% in the assay on Phytophthora capsici; 100% in the assay with Fusarium roseum; 0% with Botrytis cinerea; 95% in the assay on Piricularia oryzae [3]; 100% in the assay with Pythium ultimum; 100% in the assay with Rhizoctonia solani. In addition, the values for the inhibition of growth at 50 ppm with Xanthomonas campestris, with Septoria nodorum and in the assay on Cochliobolus sativus were 0%, 75% and 0%, respectively.
As to `O=C(c1ccccc1)N(CC#CI)N=Cc1cccc([N+](=O)[O-])c1` [Compound 12, N'-Benzoyl-N'-3-iodopropargyl 3-nitrobenzaldehyde hydrazone], the MIC was more than 100 µg/mL in the assay on Staphylococcus aureus; more than 100 µg/mL with Escherichia coli; more than 100 µg/mL in the assay with Pseudomonas fluorescens; more than 100 µg/mL with Pseudomonas aerugenosa; more than 100 µg/mL in the assay on Aspergillus niger; 100 µg/mL (≈ 231 µM) in the assay on Aureobasidium pullulans. The inhibition of growth at 50 ppm came out at 0% in the assay on Phytophthora capsici; 0% in the assay with Fusarium roseum; 0% in the assay on Botrytis cinerea; 100% in the assay with Piricularia oryzae [3]; 0% in the assay on Pythium ultimum; 95% in the assay on Rhizoctonia solani. Moreover, the inhibition of growth at 50 ppm in the assay on Xanthomonas campestris, with Septoria nodorum and in the assay on Cochliobolus sativus was 0% each time.
As to `O=C(c1ccccc1)N(CC#CI)N=Cc1ccccc1` [Compound 6, N'-Benzoyl-N'-3-iodopropargyl benzaldehyde hydrazone], the MIC in the assay on Staphylococcus aureus was 50 µg/mL (≈ 129 µM); in the assay on Escherichia coli, 50 µg/mL (≈ 129 µM); with Pseudomonas fluorescens it was 50 µg/mL (≈ 129 µM); in the assay with Pseudomonas aerugenosa, 25 µg/mL (≈ 64.4 µM); in the assay with Aspergillus niger, 6 µg/mL (≈ 15.5 µM); in the assay on Aureobasidium pullulans, 3 µg/mL (≈ 7.73 µM). Also, the inhibition of growth at 25 ppm came out at 100% in the assay with Phytophthora capsici; 0% with Fusarium roseum; 0% in the assay on Botrytis cinerea; 100% in the assay on Piricularia oryzae [3]; 100% with Pythium ultimum; 0% with Rhizoctonia solani. The inhibition of growth at 25 ppm in the assay on Xanthomonas campestris worked out at 0%; in the assay on Septoria nodorum (rate 25 PPM), 100%; in the assay with Cochliobolus sativus, 0%.
Consider `COC(=O)N(CC#CI)N=Cc1ccc(Cl)c(Cl)c1` [Compound 11, N'-Methoxycarbonyl-N'-3-iodopropargyl 3,4-dichlorobenzaldehyde hydrazone], for which the MIC in the assay on Staphylococcus aureus is 8 µg/mL (≈ 19.5 µM); in the assay on Escherichia coli, more than 500 µg/mL; with Pseudomonas fluorescens it was more than 500 µg/mL; in the assay on Pseudomonas aerugenosa, more than 500 µg/mL; in the assay on Aspergillus niger, less than 4 µg/mL; in the assay with Aureobasidium pullulans, less than 4 µg/mL. For the same compound, the pest or weed control at 200 ppm in [1] stood at 95%; in assay [4], 0%; with Phytophthora infestans it was 80%; in assay [6], 0%; in the assay on Piricularia oryzae [5] it was 90%. In addition, the inhibition of growth at 50 ppm in the assay with Phytophthora capsici was found to be 90%; in the assay on Fusarium roseum, 100%; in the assay on Botrytis cinerea it was 50%; in the assay with Piricularia oryzae [3] it was 100%; in the assay with Pythium ultimum, 0%; in the assay on Rhizoctonia solani it was 100%. For the same compound, the inhibition of growth at 50 ppm in the assay with Xanthomonas campestris was determined as 0%; in the assay on Septoria nodorum, 90%; in the assay on Cochliobolus sativus, 100%.
As for `COC(=O)N(CC#CBr)N=Cc1ccc(Cl)cc1` [Compound 1, N'-Methoxycarbonyl-N'-3-bromopropargyl 4-chlorobenzaldehyde hydrazone], the MIC in the assay with Staphylococcus aureus was more than 500 µg/mL; with Escherichia coli it was more than 500 µg/mL; in the assay on Pseudomonas fluorescens, more than 500 µg/mL; with Pseudomonas aerugenosa, 250 µg/mL (≈ 759 µM); in the assay on Aspergillus niger it was more than 500 µg/mL; in the assay with Aureobasidium pullulans, 63 µg/mL (≈ 191 µM). Further, the inhibition of growth at 25 ppm with Phytophthora capsici, with Fusarium roseum, in the assay with Botrytis cinerea, in the assay on Piricularia oryzae [3], in the assay with Pythium ultimum and with Rhizoctonia solani was 0% in each case. The inhibition of growth at 25 ppm in the assay on Xanthomonas campestris and in the assay with Cochliobolus sativus was 0% throughout.
For `COC(=O)N(CC#CI)N=Cc1ccc(C)cc1` [Compound 4, N'-Methoxycarbonyl-N'-3-iodopropargyl 4-methylbenzaldehyde hydrazone], the MIC in the assay with Staphylococcus aureus is 16 µg/mL (≈ 44.9 µM); with Escherichia coli, 250 µg/mL (≈ 702 µM); with Pseudomonas fluorescens, 125 µg/mL (≈ 351 µM); in the assay with Pseudomonas aerugenosa, 125 µg/mL (≈ 351 µM); in the assay on Aspergillus niger, less than 4 µg/mL; in the assay on Aureobasidium pullulans, 8 µg/mL (≈ 22.5 µM). In addition, the pest or weed control at 200 ppm in [1] was found to be 95%; in assay [2], 50%; in [4], 0%; in the assay on Phytophthora infestans, 80%; in [6], 50%; with Piricularia oryzae [5] it was 90%.
For `O=CN(CC#CBr)N=Cc1ccc(Cl)cc1` [Compound 2, N'-Formyl-N'-3-bromopropargyl 4-chlorobenzaldehyde hydrazone], the MIC was more than 500 µg/mL in the assay on Staphylococcus aureus; more than 500 µg/mL in the assay with Escherichia coli; more than 500 µg/mL with Pseudomonas fluorescens; 250 µg/mL (≈ 835 µM) with Pseudomonas aerugenosa; more than 500 µg/mL in the assay with Aspergillus niger; 63 µg/mL (≈ 210 µM) in the assay with Aureobasidium pullulans. Moreover, the inhibition of growth at 25 ppm in the assay with Phytophthora capsici amounted to 75%; in the assay with Fusarium roseum, 0%; in the assay with Botrytis cinerea, 0%; in the assay on Piricularia oryzae [3], 50%; in the assay with Pythium ultimum, 0%; in the assay with Rhizoctonia solani it was 0%. For the same compound, the inhibition of growth at 25 ppm with Xanthomonas campestris and in the assay with Cochliobolus sativus was 0% in each case. The pest or weed control at 600 ppm in assay [2] was 0%; in [4], 0%; in the assay on Phytophthora infestans, 50%.

These data come from patent publication US5112382A, “Halopropargyl compounds, compositions, uses and processes of preparation” (Rohm and Haas Company, priority 1990, dated 1992).
